Legend:
[1] = test system: PGC-1α and related genes; assay: Gene expression in brain and hippocampus of Parkinson's disease models; format: in vivo, rat; details: 6-OHDA SD rats, oral 0.1 mg/kg/day
Excerpt: In order to investigate the changes in gene expression and behavior improvement by the treatment with SL (3′-SL & 6′-SL) compositions in Parkinson's brain disease models, 13-week-old normal SD rats and Parkinson's brain disease models were purchased from Central Lab Animal (Korea). Water was freely accessible, and a commercially available pellet feed (Dooyeul Biotech, Korea) was given for one week. At 14 weeks of age, the SD rats were divided into four groups (composed of 8 animals per group): Eight 14-week-old male SD rats (normal rats; initial body weight, average 355.6±32.3 g) treated with a normal diet were used for a control group. […]
Sialyllactose or DW was orally administered daily. […] The dietary intake and body weight change were measured every 5 days. […]
The gene expression changes by the treatment with SL (3′-SL & 6′-SL) compositions were quantitatively compared in two main organs (brain and hippocampus) associated with bran diseases. RNA was extracted by TRIzol agent (Invitrogen). cDNA was synthesized by using RNA, which has been extracted as above and quantified, and a reverse transcription system (Promega, USA). The expression patterns of PGC-1α and related genes were measured by using pre-designed primers and probes (Applied Biosystems; PGC-1α, Mm00447181_m1, GAPDH, and Mm99999915_q1) for the synthesized cDNA and analysis targets (Fndc5, PGC-1α, Erra, UCP1, BDNF, SOD2, and GPX1). […]

[2] = test system: telomerase; assay: Telomerase activity (TRAP) in vivo, aorta of aging stimulation models; design: species or system mouse; details: oral 0.1 mg/kg/day
Procedure: In order to investigate the gene expression changes by body parts by the treatment with SL (3′-SL & 6′-SL) compositions in aging stimulation models, 4-week-old male aging stimulation model mice (SAM P1/Sku Slc) were purchased from Central Lab Animal (Korea). Water was freely accessible, and a commercially available pellet feed (Dooyeul Biotech, Korea) was given for one week. […]
In FIGS. 18a and 18b, the telomerase activity was measured using TRAP protocol (Wright et al., 1995). […] The fluorescence of the thus obtained TRAP product was measured using a fluorescent plate reader to quantify telomerase activity. Relative telomerase activity was normalized by the ratio of native […] to sulforhodamine (internal control standard), expressed as a percentage. […]

[3] = test system: telomerase; assay: Telomerase activity (TRAP) in vitro, MASMs of aging stimulation models; format: cell-based, mouse; details: MASMs of aging stimulation model control group, cultured 1 day with SL
Procedure: In FIGS. 18a and 18b, the telomerase activity was measured using TRAP protocol (Wright et al., 1995). In summary, cell pellets were lysed in CHAPS lysis solvent (containing ribnuclease inhibitor), followed by incubation at 4° C. for 30 minutes. Cell extracts ([…]) were TRAPeze reaction mix (telomerase substrate (TS) primer, fluorescent-labeled RP (reverse) primer, control standard template, and sulforhodamine-labeled standard K2 primer). The TS primer was elongated at 30° C. for 30 minutes, and then PCR was performed. The fluorescence of the thus obtained TRAP product was measured using a fluorescent plate reader to quantify telomerase activity. Relative telomerase activity was normalized by the ratio of native […] to sulforhodamine (internal control standard), expressed as a percentage. Fluorescein (M0250) was purchased from Marker Gene Technologies, Inc. H2-dichlorofluorescin diacetate (DCFDA) was purchased from Molecular Probes. MitoSOX™ Red, MitoTracker Green FM, and MitoTracker® Orange CMTMRos (MTO) were purchased from Invitrogen. 10,000× SYBR® Gold dye was purchased from Molecular Probes, Inc. Nuclear/Cytosol fractionation kit (K266-100) was purchased from BioVision. TRAPeze® XL telomerase detection kit (S7707) was purchased from MILLIPORE. Telomere PNA FISH Kit/Cy3 (K5326) was purchased from Dako. […]

**Q.** Which results are given for `CC(=O)N[C@H]1[C@H]([C@H](O)[C@H](O)CO)O[C@@](OC[C@H]2O[C@@H](O[C@H]3[C@H](O)[C@@H](O)[C@H](O)O[C@@H]3CO)[C@H](O)[C@@H](O)[C@H]2O)(C(=O)O)C[C@@H]1O` [6′-SL, α-NeuNAc-(2→6)-β-D-Gal-(1→4)-D-Glc]?
**A.** expression levels of PGC-1α and related genes vs SL non-administration (Parkinson's disease model) group [1]: very high; expression levels of PGC-1α and related genes vs normal control group [1]: somewhat lower; telomerase activity in aorta sample (in vivo) [2]: increased telomerase activity; telomerase activity in MASMs (in vitro) [3]: increased telomerase activity

**Q.** How did the “expression levels of PGC-1α and related genes vs SL non-administration (Parkinson's disease model) group” value [1] turn out when `CC(=O)N[C@H]1[C@H]([C@H](O)[C@H](O)CO)O[C@@](O[C@H]2[C@@H](O)[C@@H](CO)O[C@@H](O[C@H]3[C@H](O)[C@@H](O)C(O)O[C@@H]3CO)[C@@H]2O)(C(=O)O)C[C@@H]1O` (stereo partly drawn) [3′-SL, α-NeuNAc-(2→3)-β-D-Gal-(1→4)-D-Glc] was run?
**A.** relatively low compared with 6′-SL

**Q.** What about the “telomerase activity in aorta sample (in vivo)” value [2] of the same molecule?
**A.** increased telomerase activity

**Q.** And the “telomerase activity in MASMs (in vitro)” value [3]?
**A.** increased telomerase activity
